Experimental data reported in PubChem BioAssay AID2060613 (Molecular Pharmacology Branch, DTP, NCI, 2025).
Where “and” joins values, the source holds several entries; their conditions need not be identical. Equal entries are not always repeated.

Tested on: 233499-124-R-J3-PDC complex spheroid viability
Experiment: Anticancer human tumor 233499-124-R-J3-PDC patient-derived colon adenocarcinoma cell line growth inhibition [CLK]
Details: for viability, T/C: stronger effect = lower value
Summary of the method: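 Patient-derived tumor cells grown as complex spheroids with HUVEC endothelial cells and mesenchymal stem cells, treated with drug combinations. Concentrations descend in half-log steps from near clinical Cmax, or from 10 microM if Cmax unknown.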

[1] = curve of first compound, second compound 0.0316 µM
[2] = curve of first compound, second compound 0.1 µM
[3] = curve of first compound, second compound 0.316 µM
[4] = curve of first compound, second compound 1 µM
[5] = curve of first compound, second compound 3.16 µM
[6] = curve of first compound, second compound 10 µM
[7] = second compound 0.0316 µM, first compound 0.0316 µM
[8] = second compound 0.0316 µM, first compound 0.1 µM
[9] = second compound 0.0316 µM, first compound 0.316 µM
[10] = second compound 0.0316 µM, first compound 1 µM
[11] = second compound 0.0316 µM, first compound 3.16 µM
[12] = second compound 0.0316 µM, first compound 10 µM
[13] = second compound 0.1 µM, first compound 0.0316 µM
[14] = second compound 0.1 µM, first compound 0.1 µM
[15] = second compound 0.1 µM, first compound 0.316 µM
[16] = second compound 0.1 µM, first compound 1 µM
[17] = second compound 0.1 µM, first compound 3.16 µM
[18] = second compound 0.1 µM, first compound 10 µM
[19] = second compound 0.316 µM, first compound 0.0316 µM
[20] = second compound 0.316 µM, first compound 0.1 µM
[21] = second compound 0.316 µM, first compound 0.316 µM
[22] = second compound 0.316 µM, first compound 1 µM
[23] = second compound 0.316 µM, first compound 3.16 µM
[24] = second compound 0.316 µM, first compound 10 µM
[25] = second compound 1 µM, first compound 0.0316 µM
[26] = second compound 1 µM, first compound 0.1 µM
[27] = second compound 1 µM, first compound 0.316 µM
[28] = second compound 1 µM, first compound 1 µM
[29] = second compound 1 µM, first compound 3.16 µM
[30] = second compound 1 µM, first compound 10 µM
[31] = second compound 3.16 µM, first compound 0.0316 µM
[32] = second compound 3.16 µM, first compound 0.1 µM
[33] = second compound 3.16 µM, first compound 0.316 µM
[34] = second compound 3.16 µM, first compound 1 µM
[35] = second compound 3.16 µM, first compound 3.16 µM
[36] = second compound 3.16 µM, first compound 10 µM
[37] = second compound 10 µM, first compound 0.0316 µM
[38] = second compound 10 µM, first compound 0.1 µM
[39] = second compound 10 µM, first compound 0.316 µM
[40] = second compound 10 µM, first compound 1 µM
[41] = second compound 10 µM, first compound 3.16 µM
[42] = second compound 10 µM, first compound 10 µM
[43] = second compound 0.0316 µM, first compound 0.00316 µM
[44] = second compound 0.0316 µM, first compound 0.01 µM
[45] = second compound 0.1 µM, first compound 0.00316 µM
[46] = second compound 0.1 µM, first compound 0.01 µM
[47] = second compound 0.316 µM, first compound 0.00316 µM
[48] = second compound 0.316 µM, first compound 0.01 µM
[49] = second compound 1 µM, first compound 0.00316 µM
[50] = second compound 1 µM, first compound 0.01 µM
[51] = second compound 3.16 µM, first compound 0.00316 µM
[52] = second compound 3.16 µM, first compound 0.01 µM
[53] = second compound 10 µM, first compound 0.00316 µM
[54] = second compound 10 µM, first compound 0.01 µM
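Note: spheroids exposed to the drug combinations for seven days.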
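Throughout, for viability, T/C: percent viability relative to DMSO vehicle control wells taken as 100%.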

COC1C=CCC(C)C(C)S(=O)(=O)NC(=O)c2ccc3c(c2)N(CC2CCC21)CC1(CCCc2cc(Cl)ccc21)CO3 (centres undefined) + CNC(=O)c1ccc(Nc2nc(OC3CCCC3)c3c(-c4ccc5nc(C)oc5c4)c[nH]c3n2)c(OC)c1
IC50 [1]: 4620 nM
IC50 [2]: 135 nM
IC50 [3]: 135 nM
IC50 [4]: 113 nM
IC50 [5]: 59.5 nM
IC50 [6]: 129 nM
viability, T/C [7]: 90.8%
viability, T/C [8]: 93.5%
viability, T/C [9]: 92.5%
viability, T/C [10]: 82.2%
viability, T/C [11]: 71.2%
viability, T/C [12]: 9.78%
viability, T/C [13]: 83.2%
viability, T/C [14]: 57.4%
viability, T/C [15]: 29.4%
viability, T/C [16]: 19%
viability, T/C [17]: 33.8%
viability, T/C [18]: 11.7%
viability, T/C [19]: 79%
viability, T/C [20]: 61%
viability, T/C [21]: 19%
viability, T/C [22]: 9.42%
viability, T/C [23]: 8.88%
viability, T/C [24]: 9.03%
viability, T/C [25]: 81.2%
viability, T/C [26]: 51.6%
viability, T/C [27]: 29.8%
viability, T/C [28]: 10.1%
viability, T/C [29]: 9.03%
viability, T/C [30]: 6.79%
viability, T/C [31]: 69.2%
viability, T/C [32]: 33.6%
viability, T/C [33]: 19.7%
viability, T/C [34]: 12.3%
viability, T/C [35]: 7%
viability, T/C [36]: 7.88%
viability, T/C [37]: 60.6%
viability, T/C [38]: 59.5%
viability, T/C [39]: 17.5%
viability, T/C [40]: 11.5%
viability, T/C [41]: 7.72%
viability, T/C [42]: 5.45%

CCc1c2c(nc3ccc(O)cc13)-c1cc3c(c(=O)n1C2)COC(=O)[C@]3(O)CC + CN1CCN(c2cc(C(=O)Nc3cc4cc(-c5cnn(C)c5)ccc4cn3)ccn2)CC1
IC50 [1]: 601 nM
IC50 [2]: 463 nM
IC50 [3]: 81.4 nM
IC50 [4]: < 3.16 nM
IC50 [5]: < 3.16 nM
IC50 [6]: < 3.16 nM
viability, T/C [43]: 95.4%
viability, T/C [44]: 65.8%
viability, T/C [7]: 81.8%
viability, T/C [8]: 87.3%
viability, T/C [9]: 60.5%
viability, T/C [10]: 41.7%
viability, T/C [45]: 85.6%
viability, T/C [46]: 82.5%
viability, T/C [13]: 88%
viability, T/C [14]: 88.1%
viability, T/C [15]: 60.7%
viability, T/C [16]: 28.4%
viability, T/C [47]: 88%
viability, T/C [48]: 80.9%
viability, T/C [19]: 58.5%
viability, T/C [20]: 58.5%
viability, T/C [21]: 14.1%
viability, T/C [22]: 9.37%
viability, T/C [49]: 1.6%
viability, T/C [50]: 0.5%
viability, T/C [25]: 0.39%
viability, T/C [26]: 0.38%
viability, T/C [27]: 0.35%
viability, T/C [28]: 0.47%
viability, T/C [51]: 0.46%
viability, T/C [52]: 0.5%
viability, T/C [31]: 0.59%
viability, T/C [32]: 0.52%
viability, T/C [33]: 0.63%
viability, T/C [34]: 0.55%
viability, T/C [53]: 0.36%
viability, T/C [54]: 0.33%
viability, T/C [37]: 0.32%
viability, T/C [38]: 0.37%
viability, T/C [39]: 0.42%
viability, T/C [40]: 0.3%

Nc1ccccc1NC(=O)c1ccc(CNC(=O)OCc2cccnc2)cc1 + CNC(=O)c1ccc(Nc2nc(OC3CCCC3)c3c(-c4ccc5nc(C)oc5c4)c[nH]c3n2)c(OC)c1
IC50 [1]: 1830 nM
IC50 [2]: 731 nM
IC50 [3]: 233 nM
IC50 [4]: 199 nM
IC50 [5]: 443 nM
IC50 [6]: 157 nM
viability, T/C [7]: 96.7%
viability, T/C [8]: 86%
viability, T/C [9]: 91.8%
viability, T/C [10]: 79.7%
viability, T/C [11]: 23.1%
viability, T/C [12]: 0.94%
viability, T/C [13]: 64.9%
viability, T/C [14]: 67.4%
viability, T/C [15]: 63.6%
viability, T/C [16]: 44.8%
viability, T/C [17]: 9.08%
viability, T/C [18]: 0.5%
viability, T/C [19]: 77%
viability, T/C [20]: 66.7%
viability, T/C [21]: 43.6%
viability, T/C [22]: 20%
viability, T/C [23]: 4.82%
viability, T/C [24]: 0.23%
viability, T/C [25]: 74.6%
viability, T/C [26]: 70.1%
viability, T/C [27]: 35.7%
viability, T/C [28]: 15.2%
viability, T/C [29]: 2.15%
viability, T/C [30]: 0.09%
viability, T/C [31]: 71.1%
viability, T/C [32]: 65.6%
viability, T/C [33]: 67.2%
viability, T/C [34]: 8.74%
viability, T/C [35]: 1.22%
viability, T/C [36]: 0.1%
viability, T/C [37]: 70.8%
viability, T/C [38]: 50.4%
viability, T/C [39]: 44.5%
viability, T/C [40]: 20.6%
viability, T/C [41]: 1.09%
viability, T/C [42]: 0.15%

NC(=O)C(=Cn1cnc(-c2cc(C(F)(F)F)cc(C(F)(F)F)c2)n1)c1cncnc1
viability, T/C (compound 0.00949 µM): 79.8% and 85.7%
viability, T/C (compound 0.03 µM): 92.3% and 86.1%
viability, T/C (compound 0.0949 µM): 94.4% and 92.1%
viability, T/C (compound 0.3 µM): 70.9% and 61.6%
viability, T/C (compound 0.949 µM): 57.1% and 48%
viability, T/C (compound 3 µM): 19.2% and 7.79%
IC50 (curve of compound): 1120 nM and 750 nM

Nc1ccccc1NC(=O)c1ccc(CNC(=O)OCc2cccnc2)cc1
viability, T/C (compound 0.0316 µM): 91.4% and 90.3%
viability, T/C (compound 0.1 µM): 87.2% and 89.8%
viability, T/C (compound 0.316 µM): 74.4% and 96.3%
viability, T/C (compound 1 µM): 78% and 89.7%
viability, T/C (compound 3.16 µM): 32.4% and 33.4%
viability, T/C (compound 10 µM): 0.79% and 1.47%
IC50 (curve of compound): 2000 nM and 2250 nM

COc1ccc([C@@H](O)c2cc(-c3ncnc4cc(N5CCOCC5)ccc34)c(F)cc2Cl)nn1
viability, T/C (compound 0.0316 µM): 103% and 84.3%
viability, T/C (compound 0.1 µM): 106% and 94.1%
viability, T/C (compound 0.316 µM): 109% and 95.4%
viability, T/C (compound 1 µM): 99.8% and 91.2%
viability, T/C (compound 3.16 µM): 96.1% and 92.5%
viability, T/C (compound 10 µM): 83.5% and 79.1%
IC50 (curve of compound): > 10000 nM

CCN1CCN(Cc2ccc(Nc3ncc(F)c(-c4cc(F)c5nc(C)n(C(C)C)c5c4)n3)nc2)CC1 + CNC(=O)c1ccc(Nc2nc(OC3CCCC3)c3c(-c4ccc5nc(C)oc5c4)c[nH]c3n2)c(OC)c1
IC50 [1]: > 1000 nM
IC50 [2]: > 1000 nM
IC50 [3]: > 1000 nM
IC50 [4]: 971 nM
IC50 [5]: > 1000 nM
IC50 [6]: > 1000 nM
viability, T/C [43]: 88.3%
viability, T/C [44]: 98.3%
viability, T/C [7]: 90%
viability, T/C [8]: 106%
viability, T/C [9]: 102%
viability, T/C [10]: 70.1%
viability, T/C [45]: 71.7%
viability, T/C [46]: 91.6%
viability, T/C [13]: 84.8%
viability, T/C [14]: 83.8%
viability, T/C [15]: 89.3%
viability, T/C [16]: 64%
viability, T/C [47]: 68.8%
viability, T/C [48]: 84.3%
viability, T/C [19]: 78%
viability, T/C [20]: 94.2%
viability, T/C [21]: 62.7%
viability, T/C [22]: 53.1%
viability, T/C [49]: 77.2%
viability, T/C [50]: 85.9%
viability, T/C [25]: 74.3%
viability, T/C [26]: 85.3%
viability, T/C [27]: 84.5%
viability, T/C [28]: 49.2%
viability, T/C [51]: 81.1%
viability, T/C [52]: 75.2%
viability, T/C [31]: 78.1%
viability, T/C [32]: 78.7%
viability, T/C [33]: 97.2%
viability, T/C [34]: 57.6%
viability, T/C [53]: 76.4%
viability, T/C [54]: 80.9%
viability, T/C [37]: 66.8%
viability, T/C [38]: 74.5%
viability, T/C [39]: 60.1%
viability, T/C [40]: 51.1%
